Holding throughout (format): cell-based, human
Assay [1] has as its system APC02. Briefly: alamarBlue cytotoxicity assay, APC02. Particulars: 72 h of incubation. The method, then: (§1) To assess the cytotoxicity of the GLI inhibitor GANT61 (Sigma-Aldrich, St. Louis, MO, USA) in tumor and non-tumor cell lines, an alamarBlue assay (Sigma-Aldrich Chemical Co, St. Louis, MO, USA) was performed after 72 h of exposure to the inhibitor, as described by Ahmed et al., 1994 [46]. Cells were distributed on 96-well plates at a density of 7 × 10^4 cells/mL for adhered cells, and 3 × 10^5 cells/mL for cells in suspension. All tested compounds were dissolved in DMSO, added to wells containing 100 µL of cells in complete medium, and then incubated for 72 h. Eight concentrations of GANT61 (0.19 to 50 µg/mL), Doxorubicin (Laboratory IMA S.A.I.C., Buenos Aires, Argentina), and 5-Fluorouracil (5-FU, Sigma-Aldrich, St. Louis, MO, USA), both used as positive controls at concentrations ranging from 0.03 to 5 µg/mL, were added to respective wells. […] Absorbance was measured at 570 nm (reduced) and 595 nm (oxidized) wavelengths, using a Spectramax 190 plate reader (Molecular Devices; Sunnyvale, CA, USA).
(§2) Statistical analyses were performed, using GraphPad Prism v. […] Data were analyzed according to distribution along the normal Gaussian curve. […] Differences between groups resulting from in vitro assays were evaluated by ANOVA (analysis of variance) testing, followed by the Student–Newman–Keuls test. […]
For orientation: The colour change of resazurin is a common sign of viable cells or microbes.

Assay [2] deals with HaCat. The assay is described as follows: alamarBlue cytotoxicity assay, HaCat. Particulars: 72 h of incubation. The method, then: as §1, §2
In assay [3] the test system is GLI3 mRNA. Briefly: qPCR of HH pathway gene expression in HSC3 cells, GLI3. Particulars: HSC3, 18 and 36 µM, 12 h, not significant. The method, then:
For total RNA isolation, HSC3 cells were plated on 6-well plates, at a density of 0.7 × 10^5 cells/mL (5 mL/well volume), and incubated overnight, followed by treatment with the GLI inhibitor for 12 h at both concentrations (18 and 36 µM).
All experiments were carried out under DNAse/RNAse-free conditions. Silica microcolumns were used for RNA extraction, using an RNeasy Plus Mini Kit (QIAGEN, Hilden, Germany). Extracted RNA was analyzed for quantity and purity, using a NanoDrop®® 1000 spectrophotometer (Thermo Fisher Scientific, Waltham, MA, USA).
Reverse transcription was performed by using Superscript VILO™ transcriptase enzyme (Invitrogen, Carlsbad, CA, USA). The cDNA samples were stored at −20 °C, until the time of use.
HH pathway component expression was evaluated in cells treated or not with GANT61 by qPCR, using TaqMan Gene Expression Assays^TM inventoried for the PTCH1 (Hs00181117_m1), GLI1 (Hs01110766_m1), GLI2 (Hs01119974_m1), and GLI3 (Hs00609233_m1) genes, as well as for B2 M (Hs99999907_m1). […]
Following amplification and dissociation runs, quantification cycle (Cq) values were obtained by using the ViiA7^TM System Operational Program (AppliedByosistems, Foster City, CA, USA). For relative quantification, the comparative method (2−∆∆Cq) described by Livak and Schmittgen, 2001 was used. […]
(Quantitative PCR measures a nucleic acid by following its amplification.)

For assay [4], the system named is SHH protein. Briefly: Western blot of HH pathway proteins in HSC3 cells, SHH. To be noted: HSC3, 18 and 36 µM, 24 h. The method, then: After culturing, HSC3 cells were washed with PBS and denatured by using cell lysis buffer containing 50 mM Tris-HCl (pH 7.4), 1% Triton X-100, 150 mM NaCl, 0.5 mM EGTA, 0.5 EDTA mM, and an anti-protease cocktail (Complete Pro-inhibitor Cocktail Tablets, Roche, Basel, Switzerland). Protein extracts (50 μg) were separated by SDS-PAGE and transferred to Hybond-C Extra (GE Healthcare, Chicago, IL, USA) nitrocellulose membranes. The following antibodies were used in the Western blot assay: mouse […] against Sonic Hedgehog (1:500, Clone 5 H4, Cat. number NBP2-22126, Novus Biologicals, Centennial, CO, USA), rabbit polyclonal against Gli1 (1:500, Novus Biologicals, Cat. number NB600-600), rabbit polyclonal against Patched 1 (1:500, Novus Biologicals, Cat.number NB200-118), and rabbit polyclonal against Smoothened (1:1000, Cat. number AB72130, Abcam, Cambridge, MA, USA). The secondary antibodies were anti-mouse IgG (1:10,000, Santa Cruz Biotechnology, Santa Cruz, CA, USA) and anti-rabbit IgG (1:10,000, GE Healthcare, Chicago, IL, USA). Signal detection was performed by using an ECL + Chemiluminescence Detection System (PerkinElmer, Villebon sur-Yvette, France). The antibody actin (1:10000, Cat. Number15 G5 A11/E2, Invitrogen, Carlsbad, CA, USA) was selected as an endogenous control for analysis of HH pathway component expression in HSC3 cells. […]

In general, IC50 refers to the concentration that gives 50% inhibition. Lower therefore signals higher potency. With `CN(C)c1ccccc1CN1CCCN(Cc2ccccc2N(C)C)C1c1ccncc1` [GANT61], the half-inhibitory concentration (IC50) is more than 116 µM in assay [1] and 35.1 µM in assay [2]. Besides, the “mRNA expression of GLI3” value in assay [3] was “Reductions in mRNA expression”. Besides, in assay [4], the SHH protein expression result is reported as “reduced levels”.

The record behind these values is paper PMC7503713, “GANT61 Reduces Hedgehog Molecule (GLI1) Expression and Promotes Apoptosis in Metastatic Oral Squamous Cell Carcinoma Cells” (International Journal of Molecular Sciences, 2020).
